# From US20240382529A1, “COMPOSITIONS AND METHODS FOR TREATING SPINAL CORD INJURIES” (ASTERIAS BIOTHERAPEUTICS, INC., priority 2022, published 2024)
# B1: Decorin: extracellular small leucine-rich proteoglycan, TGF-β1/2 antagonist; recombinant form used in rat SCI models (protein, UniProt P07585 31-359, looked up)
# Decorin: DEASGIGPEVPDDRDFEPSLGPVCPFRCQCHLRVVQCSDLGLDKVPKDLPPDTTLLDLQNNKITEIKDGDFKNLKNLHALILVNNKISKVSPGAFTPLVKLERLYLSKNQLKELPEKMPKTLQELRAHENEITKVRKVTFNGLNQMIVIELGTNPLKSSGIENGAFQGMKKLSYIRIADTNITSIPQGLPPSLTELHLDGNKISRVDAASLKGLNNLAKLGLSFNSISAVDNGSLANTPHLRELHLDNNKLTRVPGGLAEHKYIQVVYLHNNNISVVGSSDFCPPGHNTKKASYSGVSLFSNPVQYWEIQPSTFRCVYVRSAIQLGNYK
# Columns and labels:
# [1] = test system: T3 to T11 neurologically complete spinal cord injuries (SCI); test: Phase 1 thoracic SCI trial of LCTOPC1 (NCT01217008): safety, adverse events; type: in vivo, human; conditions: 60 days immunosuppression
# Procedure: Study design. The trial design was an open-label, multicenter study. A single dose of 2×10^6 LCTOPC1 was injected within 7 to 14 days following SCI. Subjects who received LCTOPC1 also received tacrolimus to prevent rejection. Subjects will be followed by protocol for 15 years following administration of LCTOPC1. This study was a Phase 1, multi-center, non-randomized, a single group assignment interventional clinical trial. The Participants were enrolled from one of seven centers in the United Sates. The study was registered (NCT01217008) and the primary endpoint was safety, as measured by the frequency and severity of adverse events related to LCTOPC1, the injection procedure used to administer LCTOPC1, and/or the concomitant immunosuppression administered. The secondary endpoint was neurological function as measured by sensory scores and lower extremity motor scores on […] examinations. […] The primary endpoint was safety measured by the frequency and severity of adverse events related to the OPC1 injection, the injection procedure, and/or the concomitant immunosuppression administered. The secondary endpoint was neurological function as measured by sensory scores and lower extremity motor scores as measured by the […] examinations. […] The severity of AEs and the characterization of Serious Adverse Events (SAEs) were evaluated using standard FDA criteria. […]
# [2] = test system: subacute cervical spinal cord injuries (SCI); test: Phase 1/2a cervical SCI trial: safety, adverse events; type: in vivo, human
# Procedure: Study Design. The trial design was an open-label, staggered dose escalation, cross-sequential, multicenter study. Three sequential, escalating doses of AST-OPC1 were administered at a single time point between 21 and 42 days post-injury to subjects with subacute cervical spinal cord injuries (SCI). Subjects received AST-OPC1 via direct intra-spinal injection using a Syringe Positioning Device (SPD). To prevent rejection of engraftment, low dose tacrolimus was initiated 6 to 12 hours after and intra-spinal injection, and continued for 46 days, tapered from Day 46 to Day 60, and was discontinued at Day 60. Subjects were followed for 1 year following administration of AST-OPC1 under this protocol. Male or female subjects from 18 to 69 years of age at time of consent with sensorimotor complete, traumatic SCI (American Spinal Injury Association Impairment Scale A) or sensorimotor incomplete, traumatic SCI (American Spinal Injury Association Impairment Scale B). […] There was a single spinal cord lesion on a post-stabilization magnetic resonance imaging (MRI) scan, with sufficient visualization of the spinal cord injury epicenter and lesion margins to enable post-injection safety monitoring. Subjects were able to participate in an elective surgical procedure to inject AST-OPC1 21 to 42 days following SCI. Subjects received a single dose of either 2×10^6, 1×10^7, or 2×10^7 AST-OPC1 viable cells by injection, administered 21 to 42 days following SCI. The product was delivered intraoperatively into the spinal cord using the Syringe Positioning Device. The AST-OPC1 batch numbers used in this study were M08D1A, M22D1A and M25D1A. Single administration of AST-OPC1 was provided with 1 year of follow-up. Schematics of the planned study timeline, and subject screening and treatment, are provided in FIG. 6 and FIG. 7, respectively. A schematic diagram of the final open-label, staggered dose-escalation, multicenter Phase 1/2a clinical trial is shown in FIG. 8. An overview of study visits for the one-year protocol is presented in the study schema in FIG. 9.
# A neurological examination was completed using the standardized International Standards for Neurological Classification of Spinal Cord Injury (ISNCSCI) examination for motor and sensory testing and for designation of the American Spinal Injury Association impairment scale. The ISNCSCI is used for efficacy with respect to improved motor function in the extremities, improved sensory function, and/or a descending neurological level. Safety assessments included physical examination, vital signs, ISNCSCI neurological examination, pain questionnaire (International Spinal Cord Injury Pain Basic Data Set, ISCIPBDS), electrocardiogram (ECG), Magnetic Resonance Imaging (MRI), laboratory tests, concomitant medications, and adverse events (AEs). Results for the ISNCSCI were listed for each subject by scheduled visit and analyzed by change in motor level and motor scores as well as other exploratory assessments of arm/hand function, self-care ability and overall volitional performance. Adverse events were tabulated by system organ class and by preferred term within system organ class according to the Medical Dictionary for Regulatory Activities (MedDRAR) Version 18.0. S[…] of the safety data was performed using descriptive statistical methods including AEs incidence, severity and relatedness to AST-OPC1, to the injection procedure for product administration, and concomitant immunosuppression with tacrolimus. The number of laboratory assessments (hematology, clinical chemistry) that were below, within, or above the normal laboratory reference range were summarized for each analyte at scheduled study visits. Vital signs were summarized by calculating the mean, standard deviation, median, and range of values at each of the protocol-specified time points.
# Study Endpoints. […]
# [3] = test system: dorsal funicular lesion (DFL) SCI model; conditions: cited from earlier work
Molecule,Grade 1 AEs possibly related specifically to tacrolimus [1],Grade 2 AEs possibly related specifically to tacrolimus [1],"AEs related to Tacrolimus that were hypomagnesemia ([2]; both, human, in vivo, 60 days)","Decreased Appetite: Severity ([2]; both, human, in vivo, 60 days)","Hypomagnesemia: Days from Injection ([2]; both, human, in vivo, 60 days) [days]","Hypomagnesemia: Severity ([2]; both, human, in vivo, 60 days)","Nausea: Days from Injection ([2]; both, human, in vivo, 60 days) [days]","Nausea: Severity ([2]; both, human, in vivo, 60 days)",Bacterial infection: Days from Injection ([2]; causality Tacrolimus) [days],Bacterial infection: Outcome ([2]; causality Tacrolimus),Bacterial infection: Severity ([2]; causality Tacrolimus),Decreased Appetite: Outcome ([2]; in vivo),Hypomagnesemia: Outcome ([2]; in vivo),Nausea: Outcome ([2]; in vivo),tolerability of immunosuppression ([2]; in vivo),"effect on scarring and wound cavitation ([3]; DFL SCI model, adult rats)",axonal regrowth ([3]; Decorin-treated vs PBS-treated DFL),"inflammation, glial scar formation, CSPG expression ([3]; after acute spinal cord injury)"
"C=CC[C@@H]1/C=C(\C)C[C@H](C)C[C@H](OC)[C@H]2O[C@@](O)(C(=O)C(=O)N3CCCC[C@H]3C(=O)O[C@H](/C(C)=C/[C@@H]3CC[C@@H](O)[C@H](OC)C3)[C@H](C)[C@@H](O)CC1=O)[C@H](C)C[C@@H]2OC [Tacrolimus, tacrolimus]",Seven Grade 1 AEs,nine Grade 2 AEs,8/11,Grade 2,5 to 43,1-2 Grade,7,Grade 2,30,Resolved,Grade 3,Resolved,Resolved,Resolved,well-tolerated,–,–,–
B1,–,–,–,–,–,–,–,–,–,–,–,–,–,–,–,suppressed acute scarring (fibrogenesis) and wound cavitation,promoted axonal regrowth in both acute and chronic experiments,"inhibit inflammation, glial scar formation and CSPG expression"
